Reference: the supplement of paper PMC8617591

Legend:
[1] = test system: Mycobacterium tuberculosis Erdman (autoluminescent); test: total FIC50 (Loewe) at 50% inhibition, three-drug combination (log2); higher = more antagonistic
Method: (§1)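 DiaMOND equipotent three-drug combination dose responses (10 doses, 1.5- or 2-fold spacing, centred on IC90) against autoluminescent M. tuberculosis Erdman in 8 in vitro models. Read-out is OD600, or luminescence for the intracellular and dormancy models, normalised to untreated wells. Hill-fit Einf, AUC25 and GRinf are potency metrics; FIC50 and FIC90 are total Loewe fractional inhibitory concentrations as log2 (negative = synergy).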

[2] = test system: Mycobacterium tuberculosis Erdman (autoluminescent); test: total FIC90 (Loewe) at 90% inhibition, three-drug combination (log2); higher = more antagonistic
Method: as §1

[3] = test system: Mycobacterium tuberculosis Erdman (autoluminescent); test: Einf, fitted maximum growth inhibition of three-drug combination (fraction); higher = stronger maximal inhibition
Method: as §1

[4] = test system: Mycobacterium tuberculosis Erdman (autoluminescent); test: AUC25, normalised area under dose response up to IC25 (three-drug combination) (fraction (0-1)); higher = more potent at low dose
Method: as §1

[5] = test system: Mycobacterium tuberculosis Erdman (autoluminescent); test: GRinf, maximum normalised growth rate inhibition (three-drug combination) (unitless (-1 to 1)); higher = less effect (negative = killing)
Method: as §1

COc1nc2ccc(Br)cc2cc1[C@@H](c1ccccc1)[C@@](O)(CCN(C)C)c1cccc2ccccc12 [bedaquiline] + CC[C@@H](CO)NCCN[C@@H](CC)CO [ethambutol] + NC(=O)c1cnccn1 [pyrazinamide]
Settings	AUC25, [4]	Einf, [3]	GRinf, [5]	total FIC50, [1]	total FIC90, [2]
in vitro model: acidic pH 5.7, time point: constant (~7 days, model-specific)	0.0897	0.873	-0.571	-0.0886	–
in vitro model: acidic pH 5.7, time point: terminal (~4-5 doublings, model-specific)	0.0657	0.97	-0.4	0.412	-0.299
in vitro model: intracellular J774, time point: constant = terminal	–	0.975	-0.486	–	-0.0128

Settings	AUC25, [4]	Einf, [3]	GRinf, [5]	total FIC50, [1]	total FIC90, [2]
in vitro model: butyrate, time point: constant (~7 days, model-specific)	0.0804	0.958	-0.23	0.369	–
in vitro model: butyrate, time point: terminal (~4-5 doublings, model-specific)	0.0692	0.98	-0.518	0.327	-0.0291
in vitro model: cholesterol 0.05 mM, time point: constant (~7 days, model-specific)	0.0893	0.735	-0.275	–	–
in vitro model: cholesterol 0.05 mM, time point: terminal (~4-5 doublings, model-specific)	0.113	0.942	-0.531	1.2	–
in vitro model: cholesterol-high 0.2 mM, time point: constant (~7 days, model-specific)	0.0376	0.954	-0.425	1.15	–
in vitro model: cholesterol-high 0.2 mM, time point: terminal (~4-5 doublings, model-specific)	0.0549	1	-0.723	1	1.04
in vitro model: dormancy (butyrate + nitrate, low O2), time point: constant (~7 days, model-specific)	0.11	0.818	0.489	0.665	–
in vitro model: dormancy (butyrate + nitrate, low O2), time point: terminal (~4-5 doublings, model-specific)	0.106	0.99	-0.119	0.467	0.729
in vitro model: standard 7H9 glycerol, time point: constant = terminal	0.0685	0.924	0.0247	0.382	–
in vitro model: valerate, time point: constant (~7 days, model-specific)	0.0945	0.901	-0.0908	0.734	–
in vitro model: valerate, time point: terminal (~4-5 doublings, model-specific)	0.0602	0.954	-0.0443	0.806	-0.297

COc1nc2ccc(Br)cc2cc1[C@@H](c1ccccc1)[C@@](O)(CCN(C)C)c1cccc2ccccc12 [bedaquiline] + CC[C@@H](CO)NCCN[C@@H](CC)CO [ethambutol] + NNC(=O)c1ccncc1 [isoniazid]
Settings	AUC25, [4]	Einf, [3]	GRinf, [5]	total FIC50, [1]	total FIC90, [2]
in vitro model: acidic pH 5.7, time point: constant (~7 days, model-specific)	0.112	0.858	-0.682	0.0458	–
in vitro model: acidic pH 5.7, time point: terminal (~4-5 doublings, model-specific)	0.0484	0.953	-0.339	0.537	-0.855
in vitro model: intracellular J774, time point: constant = terminal	–	0.988	-0.401	–	-0.307

Settings	AUC25, [4]	Einf, [3]	GRinf, [5]	total FIC50, [1]	total FIC90, [2]
in vitro model: butyrate, time point: constant (~7 days, model-specific)	0.0535	0.943	-0.0949	0.537	–
in vitro model: butyrate, time point: terminal (~4-5 doublings, model-specific)	0.0425	0.975	-0.105	0.472	-0.153
in vitro model: cholesterol 0.05 mM, time point: constant (~7 days, model-specific)	0.0741	0.695	-0.191	0.858	–
in vitro model: cholesterol 0.05 mM, time point: terminal (~4-5 doublings, model-specific)	0.0839	0.891	-0.205	1.12	0.995
in vitro model: cholesterol-high 0.2 mM, time point: constant (~7 days, model-specific)	0.026	0.998	-0.751	1.05	–
in vitro model: cholesterol-high 0.2 mM, time point: terminal (~4-5 doublings, model-specific)	0.0384	1	-0.702	1.09	0.96
in vitro model: dormancy (butyrate + nitrate, low O2), time point: constant (~7 days, model-specific)	0.121	0.849	0.491	1.04	–
in vitro model: dormancy (butyrate + nitrate, low O2), time point: terminal (~4-5 doublings, model-specific)	0.0982	0.987	-0.0322	0.301	0.198
in vitro model: standard 7H9 glycerol, time point: constant = terminal	0.0658	0.957	-0.0846	0.398	–
in vitro model: valerate, time point: constant (~7 days, model-specific)	0.116	0.912	-0.0812	0.656	–
in vitro model: valerate, time point: terminal (~4-5 doublings, model-specific)	0.0717	0.954	-0.0498	0.744	0.58

COc1nc2ccc(Br)cc2cc1[C@@H](c1ccccc1)[C@@](O)(CCN(C)C)c1cccc2ccccc12 [bedaquiline] + CC[C@@H](CO)NCCN[C@@H](CC)CO [ethambutol] + O=[N+]([O-])c1cn2c(n1)OC[C@@H](OCc1ccc(OC(F)(F)F)cc1)C2 [pretomanid]
Settings	AUC25, [4]	Einf, [3]	GRinf, [5]	total FIC50, [1]	total FIC90, [2]
in vitro model: acidic pH 5.7, time point: constant (~7 days, model-specific)	0.0902	0.854	-0.482	0.869	–
in vitro model: acidic pH 5.7, time point: terminal (~4-5 doublings, model-specific)	0.0847	0.982	-0.316	0.639	0.498
in vitro model: intracellular J774, time point: constant = terminal	–	0.938	-0.203	–	-1.11

Settings	AUC25, [4]	Einf, [3]	GRinf, [5]	total FIC50, [1]	total FIC90, [2]
in vitro model: butyrate, time point: constant (~7 days, model-specific)	0.059	0.925	-0.0548	0.544	–
in vitro model: butyrate, time point: terminal (~4-5 doublings, model-specific)	0.0482	0.966	-0.0543	0.327	-0.226
in vitro model: cholesterol 0.05 mM, time point: constant (~7 days, model-specific)	0.0996	0.781	-0.351	0.964	–
in vitro model: cholesterol 0.05 mM, time point: terminal (~4-5 doublings, model-specific)	0.0849	0.927	-0.277	1.08	1.26
in vitro model: cholesterol-high 0.2 mM, time point: constant (~7 days, model-specific)	0.0639	0.893	-0.294	1.17	–
in vitro model: cholesterol-high 0.2 mM, time point: terminal (~4-5 doublings, model-specific)	0.0509	1	-0.825	1.06	1.39
in vitro model: dormancy (butyrate + nitrate, low O2), time point: constant (~7 days, model-specific)	0.123	0.894	0.353	0.967	–
in vitro model: dormancy (butyrate + nitrate, low O2), time point: terminal (~4-5 doublings, model-specific)	0.115	0.997	-0.265	0.317	0.645
in vitro model: standard 7H9 glycerol, time point: constant = terminal	0.0898	0.972	-0.0976	0.231	–
in vitro model: valerate, time point: constant (~7 days, model-specific)	0.139	0.897	-0.0325	-0.239	–
in vitro model: valerate, time point: terminal (~4-5 doublings, model-specific)	0.0867	0.948	-0.0164	0.257	0.215
